Data published in US20040009904A1, “APL immunoreactive peptides, conjugates thereof and methods of treatment for aPL antibody-mediated pathologies” (priority 1995, published 2004).
Numbered stars: 1 amine (or outer) side, 2 acyl side, 3 side chain; on linkers, the order of the positions; unused ones are H or OH. Bridge positions count the residues as written; N and C are the ends. Square brackets hold non-standard residues; d marks the D form. Ends that are not written are not given here. Peptide text beside a SMILES is read from it. Abu(4-yl) = O=C([C@H](CC[*:3])N[*:1])[*:2]; Phg = N[C@H](C(=O)O)c1ccccc1; hCys = N[C@@H](CCS)C(=O)O; ATU = not defined here; Aib = CC(C)(N)C(=O)O; Sar = CNCC(=O)O

Assays:
ACA-6501 = assay: Competitive binding peptide ACA ELISA, cardiolipin/β2-GPI-coated plates; design: species or system human; conditions: for with ACA 6501 150 ug/mL: Optimization of Peptide 3G3, inf = no 50% inhibition; for IC50 Values, ACA-6501: cyclic thioether analogs
Description: (§1) A variation of this assay uses microtitration plates coated with human β2-glycoprotein I/cardiolipin (β2-GPI/CL) instead of tetravalent peptide and tests the ability of monomeric peptides to block the binding of aPL antibody to the epitope(s) on β2-GPI/CL. In this assay, IgG-depleted human serum at an optimized concentration is used as a source of β2-GPI. The monomeric peptides at several concentrations are incubated with an optimized concentration of aPL antibody in a manner analogous to the assay which employs tetravalent peptide as a plate substrate. Following the incubation of aPL/peptide in (β2-GPI/CL) plates, antibody binding and the peptide concentration required for 50% inhibition is determined at half-maximal absorbance as in the tetravalent assay.
(§2) Peptide sequences for all five peptides immediately follow the table. All were tested using the competitive binding peptide ACA ELISA using CL/β2-GPI plates as described herein.
(§3) (B) Immulon I® 96-well, flat-bottom, polystyrene microtitration plates (Dynatech Laboratories, Inc., Chantilly, Va.) were coated with 30 μL/well of cardiolipin (CL, 50 μg; Sigma Chemical Co., St. Louis, Mo.) in ethanol. Two control wells received 30 μL ethanol only. After overnight evaporation at 4° C., each well was blocked with 200 μL of 5% (w/v) fish gelatin in PBS for 2 hours at RT.
During this incubation, variable amounts of each of six peptides were mixed with 22 μL ACA-6501 serum diluted with 3% fish gelatin in 1:1 TBS/PBS (final dilution of 1:400) in a final volume of 220 μL using Eppendorf microcentrifuge tubes. Specifically, in tube #1 were mixed 181.3 μL of 3% fish gelatin in TBS-PBS, 16.7 μL of peptide stock solution plus 22 μL of ACA-6501 serum diluted 40 times in 3% fish gelatin/TBS-PBS. Stock solutions ranged from 450-800 μg/mL for peptides #951 (diserine non-cyclized negative control), #952 (a lot of LJP 690), and thioethers CCTE-3G3, CHTE-3G3, HCTE-3G3 and HHTE-3G3. To tube #2 the following were added: 148 μL fish gelatin/TBS-PBS, […] of peptide stock solution, plus 22 μL of 40 times diluted ACA-6501 serum. Tube #3 contained 48 μL fish gelatin/TBS-PBS, […] of peptide stock solution, plus 22 μL of 40 times diluted ACA-6501 serum. The control tube #4 received 396 μL fish gelatin/TBS-PBS and 44 μL of 40 times diluted ACA-6501 serum (no peptide). Each of the tubes incubated for approximately 1 hour at RT.
(§4) The CL/β2-GPI microtitration plate was washed 5 times with TBS and 100 μL aliquots in duplicate from Eppendorf tubes #1, 2, 3, and 4 containing the antibody-peptide (or no peptide mixtures) were added to the wells. A volume of 100 μL from tube #4 was added to the duplicate control wells containing no cardiolipin. The microtitration plate was incubated for 1 hour at RT with agitation at 40 rpm in an orbital shaker (American Scientific, Rotator V), washed 5 times with TBS and then 100 μL of 1:1000 goat anti-human IgG alkaline phosphatase conjugate (Zymed, Cat No. 62-8422) in 0.5% (w/v) BSA-TBS was added. Following incubation for 1 hour at RT, the microtitration plate was again washed 5 times with TBS and the colorimetric enzyme detection developed by adding 100 μL of PMPP solution (7.8 g phenolphthalein monophosphate plus 69.5 g of 2-amino-2-methyl-1-propanol in 100 mL water stock solution diluted 1:26 with water). After 21 minutes, the reaction was stopped by adding 50 μL of 0.2 M Na2HPO4 (Mallinckrodt) to each well. Absorbance at 550 nm was read in a microplate reader (Bio-Tek Instruments, Model EL 311). The amount of peptide that inhibited ACA-6501 binding by 50%, the IC50, was calculated from the graph at the intersection of half-maximal absorbance with amount of peptide added.

ACA = assay: Structure Activity Relationship of the Crossreactive ACA Epitope (relative activity); format: binding, human; conditions: LJP 688 = 100
Excerpt: Peptide 6641/3G3 (LJP 688) was subjected to a number of analyses. The analyses included truncation at both the N-terminus and the C-terminus, disulfide substitution, substitution of alanine and glycine for amino acids in positions 2 through 8, substitution of branched aliphatic amino acids in positions 2, 4, 5 and 8, substitution of amino acids affecting conformation of the peptide, including substitution of α-methyl amino acids, substitution of basic amino acids in position 7, substitution of D-amino acids in positions 2 through 9, and the substitution of N-α-methyl amino acids in positions 1 through 9.

ACA-6701 = assay: Competitive binding peptide ACA ELISA, cardiolipin/β2-GPI-coated plates; design: species or system human; conditions: cyclic thioether analogs
Description: as §1, §2, §3, §4

Row | Compound | with ACA 6501 150 ug/mL (ACA-6501) | further results
1 | CC(C)C[C@@H]1NC(=O)[C@H](CCCCN)NC(=O)CNC(=O)[C@@H](CC(C)C)NC(=O)[C@@H](C(C)C)NC(=O)CNC(=O)[C@H](CC(C)C)NC(=O)[C@@H](N)CSSC[C@@H](C(=O)O)NC1=O [C L G dV dL G K L C] (H-CLG[dV][dL]GKLC-OH; disulfide 1-9) | 50 µg/mL | Relative Activity (ACA): 5.9
2 | CC(C)C[C@@H]1NC(=O)[C@H](CCCCN)NC(=O)CNC(=O)[C@H](CC(C)C)NC(=O)[C@H](c2ccccc2)NC(=O)CNC(=O)[C@H](CC(C)C)NC(=O)[C@@H](N)CSSC[C@@H](C(=O)O)NC1=O [C L G pG L G K L C] (H-CLG[Phg]LGKLC-OH; disulfide 1-9) | 70 µg/mL | –
3 | CC(C)C[C@@H]1NC(=O)[C@H](CCCCN)NC(=O)CNC(=O)[C@H](CC(C)C)NC(=O)[C@H](C(C)C)NC(=O)[C@@H]2CCCN2C(=O)[C@H](CC(C)C)NC(=O)[C@@H](N)CSSC[C@@H](C(=O)O)NC1=O [C L P V L G K L C] (H-CLPVLGKLC-OH; disulfide 1-9) | 340 µg/mL | –
4 | CC(C)C[C@@H]1NC(=O)[C@H](CCCCN)NC(=O)CNC(=O)[C@H](CC(C)C)NC(=O)[C@H](C(C)C)NC(=O)C(C)(C)NC(=O)[C@H](CC(C)C)NC(=O)[C@@H](N)CSSC[C@@H](C(=O)O)NC1=O [C L aiB V L G K L C] (H-CL[Aib]VLGKLC-OH; disulfide 1-9) | 80 µg/mL | –
5 | CC(C)C[C@@H]1NC(=O)[C@H](CCCCN)NC(=O)CNC(=O)[C@H](CC(C)C)NC(=O)[C@H](C(C)C)NC(=O)CN(C)C(=O)[C@H](CC(C)C)NC(=O)[C@@H](N)CSSC[C@@H](C(=O)O)NC1=O [C L nG V L G K L C] (H-CL[Sar]VLGKLC-OH; disulfide 1-9) | 70 µg/mL | –
6 | CC(C)C[C@@H]1NC(=O)[C@H](CCCCN)NC(=O)CNC(=O)[C@H](CC(C)C)NC(=O)[C@H](C(C)C)NC(=O)[C@H](c2ccccc2)NC(=O)[C@H](CC(C)C)NC(=O)[C@@H](N)CSSC[C@@H](C(=O)O)NC1=O [C L pG V L G K L C] (H-CL[Phg]VLGKLC-OH; disulfide 1-9) | 70 µg/mL | –
7 | CC(C)C[C@@H]1NC(=O)[C@H](CCCCN)NC(=O)CNC(=O)[C@H](CC(C)C)NC(=O)[C@H](C(C)C)NC(=O)CNC(=O)[C@@H]2CCCN2C(=O)[C@@H](N)CSSC[C@@H](C(=O)O)NC1=O [C P G V L G K L C] (H-CPGVLGKLC-OH; disulfide 1-9) | 160 µg/mL | –
8 | CC(C)C[C@@H]1NC(=O)[C@H](CCCCN)NC(=O)CNC(=O)[C@H](CC(C)C)NC(=O)[C@H](C(C)C)NC(=O)CNC(=O)[C@H](C(C)C)NC(=O)[C@@H](N)CSSC[C@@H](C(=O)O)NC1=O [C V G V L G K L C] (H-CVGVLGKLC-OH; disulfide 1-9) | 130 µg/mL | –
9 | CC(C)C[C@@H]1NC(=O)[C@H](CCCCN)NC(=O)CNC(=O)[C@H](CC(C)C)NC(=O)[C@H](C(C)C)NC(=O)CNC(=O)C(C)(C)NC(=O)[C@@H](N)CSSC[C@@H](C(=O)O)NC1=O [C aiB G V L G K L C] (H-C[Aib]GVLGKLC-OH; disulfide 1-9) | 370 µg/mL | –
10 | CC(C)C[C@@H]1NC(=O)[C@H](CCCCN)NC(=O)CNC(=O)[C@H](CC(C)C)NC(=O)[C@H](C(C)C)NC(=O)CNC(=O)[C@H](c2ccccc2)NC(=O)[C@@H](N)CSSC[C@@H](C(=O)O)NC1=O [C pG G V L G K L C] (H-C[Phg]GVLGKLC-OH; disulfide 1-9) | 130 µg/mL | –
11 | CC(C)C[C@@H]1NC(=O)[C@H](CCCCN)NC(=O)CNC(=O)[C@H](CC(C)C)NC(=O)[C@H](C(C)C)NC(=O)CNC(=O)[C@@H](CC(C)C)NC(=O)[C@@H](N)CSSC[C@@H](C(=O)O)NC1=O [CdL G V L G K L C] (H-C[dL]GVLGKLC-OH; disulfide 1-9) | 180 µg/mL | –
12 | CC(C)C[C@@H]1NC(=O)[C@@H](NC(=O)[C@@H]2CCCN2C(=O)CN)CSSC[C@@H](C(=O)N2CCC[C@H]2C(=O)NCC(=O)O)NC(=O)[C@H](CC(C)C)NC(=O)[C@H](CCCCN)NC(=O)CNC(=O)[C@H](CC(C)C)NC(=O)[C@H](C(C)C)NC(=O)CNC1=O [G P C L G V L G K L C P G] (H-GPCLGVLGKLCPG-OH; disulfide 3-11) | 180 µg/mL | –
13 | CC(C)C[C@@H]1NC(=O)[C@H](CCCCN)NC(=O)CNC(=O)[C@H](CC(C)C)NC(=O)[C@H](C(C)C)NC(=O)CNC(=O)[C@H](CC(C)C)NC(=O)[C@@H](N)CSC[C@@H](C(=O)O)NC1=O [LJP 698] | – | IC50 Values, ACA-6501 (ACA-6501): 11.0 μg/0.1 mL; IC50 Values, ACA-6701 (ACA-6701): 5.0 μg/0.1 mL
14 | CC(C)C[C@@H]1NC(=O)[C@H](CCCCN)NC(=O)CNC(=O)[C@H](CC(C)C)NC(=O)[C@H](C(C)C)NC(=O)CNC(=O)[C@H](CC(C)C)NC(=O)[C@@H](N)CSCC[C@@H](C(=O)O)NC1=O [LJP 702] (H-CLGVLGKL[Abu(4-yl)]-OH; thioether 1-9; N-terminus and C-terminus assumed) | 92 µg/mL | IC50 Values, ACA-6501 (ACA-6501): 9.2 μg/0.1 mL; IC50 Values, ACA-6701 (ACA-6701): 3.2 μg/0.1 mL
15 | CC(C)C[C@@H]1NC(=O)[C@H](CCCCN)NC(=O)CNC(=O)[C@H](CC(C)C)NC(=O)[C@H](C(C)C)NC(=O)CNC(=O)[C@H](CC(C)C)NC(=O)[C@@H](N)CCSCC[C@@H](C(=O)O)NC1=O [LJP 703] (H-[hCys]LGVLGKL[Abu(4-yl)]-OH; thioether 1-9; N-terminus and C-terminus assumed) | 80 µg/mL | IC50 Values, ACA-6501 (ACA-6501): 8.0 μg/0.1 mL; IC50 Values, ACA-6701 (ACA-6701): 3.6 μg/0.1 mL
16 | CC(C)C[C@@H]1NC(=O)[C@@H](NC(=O)[C@@H]2CCCN2)CSSC[C@@H](C(=O)N2CCC[C@H]2C(=O)NCC(=O)O)NC(=O)[C@H](CC(C)C)NC(=O)[C@H](CCCCN)NC(=O)CNC(=O)[C@H](CC(C)C)NC(=O)[C@H](C(C)C)NC(=O)CNC1=O [P C L G V L G K L C P G] (H-PCLGVLGKLCPG-OH; disulfide 2-10) | 420 µg/mL | –
17 | CC(C)C[C@@H]1NC(=O)[C@@H](NC(=O)[C@H]2CCCN2)CSSC[C@@H](C(=O)O)NC(=O)[C@H](CC(C)C)NC(=O)[C@H](CCCCN)NC(=O)CNC(=O)[C@H](CC(C)C)NC(=O)[C@H](C(C)C)NC(=O)CNC1=O [dP C L G V L G K L C] (H-[dP]CLGVLGKLC-OH; disulfide 2-10) | 120 µg/mL | –
18 | C L G V L G K L C ATU-Y (CLGVLGKLC; C-terminal ATU-Y extension) | 300 µg/mL | –
19 | C L G V aiB G K L C | inf. | –
20 | CLGGLGKLC [C L G G L G K L C] | inf. | –
21 | CLGVGGKLC [C L G V G G K L C] | inf | –
22 | CLGVLCKLC [C L G V L C K L C] | 500 µg/mL | –
23 | CLGVLGGLC [C L G V L G G L C] | inf | –
24 | CLGVLPGKLC | – | Relative Activity (ACA): 1.4
25 | CLGVPGKLC [C L G V P G K L C] | Inf. | –
26 | SLGVLGKLS [diserine non-cyclized negative control, reference compound] | – | Relative Activity (ACA): ∞
27 | Y ATU C L G V L G K L C ({Tyr-ATU}-CLGVLGKLC; cysteine pairing not given here; reading uncertain) | 170 µg/mL | –
